# Literature values, collected in patent publication US10596151B2, “Methods and pharmaceutical compositions for reducing arterial stiffness with a combination of a therapeutic agent blocking the angiotensin receptor and a therapeutic agent inhibiting the NEP enzyme” (Novartis AG, priority 2015, dated 2020).
# Test system: patients with hypertension
# Settings: after 12 weeks of therapy; cited from earlier work
structure (smiles),measurement,value
O=C(N[C@H]1CCS[C@H]2CCC[C@@H](C(=O)O)N2C1=O)[C@@H](S)Cc1ccccc1 [omapatrilat],aortic characteristic impedance compared with enalapril,greater improvements in aortic characteristic impedance compared with enalapril
